# In US20250345392A1, “ANNEXIN A1 LIQUID PHARMACEUTICAL COMPOSITION” (ResoTher Pharma A/S, priority 2022, published 2025):
# Read-outs that look alike come from different tables or passages of the source. Ends that are not written are not given here.
# Assay: Clinical test in humans, three 30-min i.v. infusions 8 hours apart, plasma PK
# Assay type: in vivo
# Conditions: human; for time of first measurable concentrations after the start of infusion: each infusion; for half-life / AUC(0-t) / AUC / Cmax / Tmax: in vivo, iv, three 30-min i.v. infusions 8 h apart; for half-life: after the last infusion; for AUC(0-t): read-out: AUC0-24
# Protocol: A total of 8 subjects were included in each group. In each group, 6 subjects received the active treatment and 2 received the placebo. The active treatment was as follows in each group: • Group 9 received three 8 hours apart 30-min Peptide 1 intravenous (i.v.) infusions, wherein each i.v. infusion corresponded to a dose of 50 μg/kg. • Group 10 received three 8 hours apart 30-min Peptide 1 intravenous (i.v.) infusions, wherein each i.v. infusion corresponded to a dose of 100 μg/kg. • Group 11 received three 8 hours apart 30-min Peptide 1 intravenous (i.v.) infusions, wherein each i.v. infusion corresponded to a dose of 140 μg/kg. • Group 12 received three 8 hours apart 30-min Peptide 1 intravenous (i.v.) infusions, wherein each i.v. infusion corresponded to a dose of 200 μg/kg. • Group 13 received three 8 hours apart 30-min Peptide 1 intravenous (i.v.) infusions, wherein each i.v. infusion corresponded to a dose of 250 μg/kg.
# The tested liquid pharmaceutical composition has a pH of 8.2-8.4, and comprises the following: • i) 5 mg/ml of Peptide 1, • ii) 4% (w/w) mannitol, • iii) 1% (w/w) sucrose, • iv) 0.01% (w/w) Polysorbate-80, • v) 10 mM glycyl-glycine, and • vi) sterile water for injection.
# Venous whole blood samples were collected from all subjects.
# Plasma samples were analyzed for Peptide 1 using validated Liquid chromatography—Tandem Mass spectrometry (LC-MS/MS) methods by Charles River Laboratories (CRL).
# Derivation of PK parameters were carried out by PhinC Development using Phoenix WinNonlin® (Version Phoenix 8.1—Certara—Princeton—USA). A non-compartmental analysis (NCA) approach was chosen.
# For the calculation of the PK parameters and characteristics the following rules were applied: • All the plasma concentrations validated by the bioanalytical laboratory and provided to the pharmacokinetics were used for the PK analysis. • The theoretical PK blood sampling time points were used. • At time points in the lag-time between time zero and the first concentration equal or above limit of quantification (LOQ), concentrations below the LOQ (BLQ) were set to zero (0). • Concentrations BLQ between 2 concentrations equal or above LOQ were considered as missing. • Trailing concentrations (at time point between time of last measurable concentrations and time of last blood sample) BLQ were not used in calculations. • For 3 infusions regimen, each infusion was considered separately and BLQ rules were applied for each infusion. […] If the pre-dose value was greater than 5% of Cmax, the subject was dropped from all statistical evaluations.
# AUC0-tau was only calculated if there were at least 3 concentrations above LOQ. • AUC0-24: The area under the plasma concentration-time curve from time zero (pre-dose) to 24 h was calculated as the sum of the 3 AUC0-tau: AUC0-24=AUC0-tau1+AUC0-tau2+AUC0-tau3. • AUC0-t: The area under the concentration-time curve from time zero (pre-dose) to the time of last quantifiable concentration was calculated using a linear trapezoidal method after each administration (AUC0-t1, AUC0-t2 and AUC0-t3, where AUC0-t1 was AUC0-t corresponded to the AUC from pre-dose to the last measurable quantifiable concentration following the first infusion). AUC0-t was only calculated if there were at least 3 concentrations above LOQ. • ke: The terminal plasma elimination rate-constant was estimated from log-linear regression analysis of the terminal phase of the plasma concentration-time profile. The number of points included in the terminal phase was determined by visual inspection of the semi-log plots of the plasma concentration-time profiles. A minimum of 3 data points, including the last measured data point and excluding Cmax, had to be available for the regression. The correlation coefficient for the goodness of the fit of the regression line through the data points (r^2) had to be 0.8000 or higher, for the value to be considered reliable. […]
# [1] = Group 12 (three infusions of 200 μg/kg)
# [2] = Group 13 (three infusions of 250 μg/kg)
# [3] = between 50 μg/kg t.i.d. and 250 μg/kg t.i.d. (dose increased by 5-fold)
# [4] = between 100 μg/kg t.i.d. and 250 μg/kg t.i.d. (dose increased by 2.5-fold)
# [5] = between 140 μg/kg t.i.d. and 250 μg/kg t.i.d. (dose increased by 1.8-fold)
# [6] = between 200 μg/kg t.i.d. and 250 μg/kg t.i.d. (dose increased by 1.25-fold)
# [7] = 100 ug/kg, 100 μg/kg each, mean
# [8] = 140 ug/kg, 140 μg/kg each, mean
# [9] = 200 ug/kg, 200 μg/kg each, mean
# [10] = 250 ug/kg, 250 μg/kg each, mean
substance,measurement,setting,value
AMVSEFLKQAWFIENEEQEYVQTLKSSKGGPGSAVSPYPTFNPSSDV-NH2 [Peptide 1],time up to which concentrations were measurable in all subjects after each infusion,[1],at least 4 h
same,time of first measurable concentrations after the start of infusion,[1],0.16 h
same,time up to which concentrations were measurable in all subjects after each infusion,[2],at least 4 h
same,time of first measurable concentrations after the start of infusion,[2],0.16 h
same,increase of GM of AUC0-24,[3],4.8 fold
same,increase of GM of Global Cmax,[3],5.4 fold
same,increase of GM of AUC0-24,[4],2.1 fold
same,increase of GM of Global Cmax,[4],2.2 fold
same,increase of GM of AUC0-24,[5],1.4 fold
same,increase of GM of Global Cmax,[5],1.6 fold
same,increase of GM of AUC0-24,[6],0.9 fold
same,increase of GM of Global Cmax,[6],1.0 fold
same,GM accumulation ratios on Cmax and AUC0-tau,"between the first and the last infusion, dose range 50-250 μg/kg, no accumulation observed",around 1
same,half-life,"50 ug/kg, 50 μg/kg each, GM",1.37 h
same,AUC(0-t),"50 ug/kg, 50 μg/kg each, GM",1560 ng·h/mL
same,AUC,"50 ug/kg, 50 μg/kg each, GM, read-out: AUC0-t2",416 ng·h/mL
same,AUC,"50 ug/kg, 50 μg/kg each, GM, read-out: AUC0-t3",433 ng·h/mL
same,AUC,"50 ug/kg, 50 μg/kg each, GM, read-out: AUC0-tau2",511 ng·h/mL
same,AUC,"50 ug/kg, 50 μg/kg each, GM, read-out: AUC0-tau3",538 ng·h/mL
same,Cmax,"50 ug/kg, 50 μg/kg each, GM, read-out: Global Cmax",420 ng/mL
same,Tmax,"50 ug/kg, 50 μg/kg each, GM, read-out: Global tmax",4.12 h
same,Tmax,"50 ug/kg, 50 μg/kg each, GM, read-out: tmax3",16.5 h
same,half-life,"50 ug/kg, 50 μg/kg each, mean",1.38 h
same,AUC(0-t),"50 ug/kg, 50 μg/kg each, mean",1570 ng·h/mL
same,AUC,"50 ug/kg, 50 μg/kg each, mean, read-out: AUC0-t1",422 ng·h/mL
same,AUC,"50 ug/kg, 50 μg/kg each, mean, read-out: AUC0-t2",420 ng·h/mL
same,AUC,"50 ug/kg, 50 μg/kg each, mean, read-out: AUC0-t3",437 ng·h/mL
same,AUC,"50 ug/kg, 50 μg/kg each, mean, read-out: AUC0-tau1",513 ng·h/mL
same,Cmax,"50 ug/kg, 50 μg/kg each, mean, read-out: Cmax3",398 ng/mL
same,Cmax,"50 ug/kg, 50 μg/kg each, mean, read-out: Global Cmax",422 ng/mL
same,Tmax,"50 ug/kg, 50 μg/kg each, median, read-out: Global tmax",8.5 h
same,half-life,"100 ug/kg, 100 μg/kg each, GM",2.04 h
same,AUC,"100 ug/kg, 100 μg/kg each, GM, read-out: AUC0-tau1",1100 ng·h/mL
same,AUC,"100 ug/kg, 100 μg/kg each, GM, read-out: AUC0-tau2",1240 ng·h/mL
same,AUC,"100 ug/kg, 100 μg/kg each, GM, read-out: AUC0-tau3",1260 ng·h/mL
same,Cmax,"100 ug/kg, 100 μg/kg each, GM, read-out: Global Cmax",1020 ng/mL
same,Tmax,"100 ug/kg, 100 μg/kg each, GM, read-out: Global tmax",11.8 h
same,half-life,[7],2.18 h
same,AUC(0-t),[7],3620 ng·h/mL
same,AUC,"100 ug/kg, 100 μg/kg each, mean, read-out: AUC0-t2",1130 ng·h/mL
same,AUC,"100 ug/kg, 100 μg/kg each, mean, read-out: AUC0-t3",1090 ng·h/mL
same,Tmax,"100 ug/kg, 100 μg/kg each, median, read-out: Global tmax",12.5 h
same,Tmax,"100 ug/kg, 100 μg/kg each, median, read-out: tmax3",16.5 h
same,AUC,"140 ug/kg, 140 μg/kg each, GM, read-out: AUC0-t1",1660 ng·h/mL
same,AUC,"140 ug/kg, 140 μg/kg each, GM, read-out: AUC0-t2",1760 ng·h/mL
same,AUC,"140 ug/kg, 140 μg/kg each, GM, read-out: AUC0-tau1",1740 ng·h/mL
same,AUC,"140 ug/kg, 140 μg/kg each, GM, read-out: AUC0-tau2",1850 ng·h/mL
same,AUC,"140 ug/kg, 140 μg/kg each, GM, read-out: AUC0-tau3",1690 ng·h/mL
same,Cmax,"140 ug/kg, 140 μg/kg each, GM, read-out: Global Cmax",1400 ng/mL
same,Tmax,"140 ug/kg, 140 μg/kg each, GM, read-out: Global tmax",3.29 h
same,half-life,[8],1.94 h
same,AUC(0-t),[8],5410 ng·h/mL
same,AUC,"140 ug/kg, 140 μg/kg each, mean, read-out: AUC0-t1",1690 ng·h/mL
same,AUC,"140 ug/kg, 140 μg/kg each, mean, read-out: AUC0-t2",1870 ng·h/mL
same,AUC,"140 ug/kg, 140 μg/kg each, mean, read-out: AUC0-t3",1600 ng·h/mL
same,AUC,"140 ug/kg, 140 μg/kg each, mean, read-out: AUC0-tau1",1760 ng·h/mL
same,AUC,"140 ug/kg, 140 μg/kg each, mean, read-out: AUC0-tau2",1940 ng·h/mL
same,Cmax,"140 ug/kg, 140 μg/kg each, mean, read-out: Global Cmax",1430 ng/mL
same,Tmax,"140 ug/kg, 140 μg/kg each, median, read-out: Global tmax",8.41 h
same,Tmax,"140 ug/kg, 140 μg/kg each, median, read-out: tmax3",16.5 h
same,half-life,"200 ug/kg, 200 μg/kg each, GM",1.93 h
same,AUC(0-t),"200 ug/kg, 200 μg/kg each, GM",8020 ng·h/mL
same,AUC,"200 ug/kg, 200 μg/kg each, GM, read-out: AUC0-t2",2560 ng·h/mL
same,AUC,"200 ug/kg, 200 μg/kg each, GM, read-out: AUC0-t3",2690 ng·h/mL
same,AUC,"200 ug/kg, 200 μg/kg each, GM, read-out: AUC0-tau1",2590 ng·h/mL
same,AUC,"200 ug/kg, 200 μg/kg each, GM, read-out: AUC0-tau2",2650 ng·h/mL
same,Cmax,"200 ug/kg, 200 μg/kg each, GM, read-out: Global Cmax",2350 ng/mL
same,Tmax,"200 ug/kg, 200 μg/kg each, GM, read-out: Global tmax",2.57 h
same,half-life,[9],1.94 h
same,AUC(0-t),[9],8120 ng·h/mL
same,AUC,"200 ug/kg, 200 μg/kg each, mean, read-out: AUC0-t1",2520 ng·h/mL
same,AUC,"200 ug/kg, 200 μg/kg each, mean, read-out: AUC0-t2",2610 ng·h/mL
same,AUC,"200 ug/kg, 200 μg/kg each, mean, read-out: AUC0-t3",2720 ng·h/mL
same,AUC,"200 ug/kg, 200 μg/kg each, mean, read-out: AUC0-tau1",2620 ng·h/mL
same,AUC,"200 ug/kg, 200 μg/kg each, mean, read-out: AUC0-tau2",2690 ng·h/mL
same,AUC,"200 ug/kg, 200 μg/kg each, mean, read-out: AUC0-tau3",2810 ng·h/mL
same,Tmax,"200 ug/kg, 200 μg/kg each, median, read-out: Global tmax",4.5 h
same,Tmax,"200 ug/kg, 200 μg/kg each, median, read-out: tmax3",16.5 h
same,AUC(0-t),"250 ug/kg, 250 μg/kg each, GM",7490 ng·h/mL
same,AUC,"250 ug/kg, 250 μg/kg each, GM, read-out: AUC0-t3",2410 ng·h/mL
same,AUC,"250 ug/kg, 250 μg/kg each, GM, read-out: AUC0-tau1",2590 ng·h/mL
same,AUC,"250 ug/kg, 250 μg/kg each, GM, read-out: AUC0-tau2",2390 ng·h/mL
same,Cmax,"250 ug/kg, 250 μg/kg each, GM, read-out: Global Cmax",2260 ng/mL
same,Tmax,"250 ug/kg, 250 μg/kg each, GM, read-out: Global tmax",3.69 h
same,Tmax,"250 ug/kg, 250 μg/kg each, GM, read-out: tmax1",0.46 h
same,half-life,[10],1.88 h
same,AUC(0-t),[10],7550 ng·h/mL
same,AUC,"250 ug/kg, 250 μg/kg each, mean, read-out: AUC0-t1",2540 ng·h/mL
same,AUC,"250 ug/kg, 250 μg/kg each, mean, read-out: AUC0-t2",2350 ng·h/mL
